Columns and labels:
[1] = test system: KRas G12D-mediated Phosphorylation of ERK; assay: Inhibition of KRas G12D-mediated Phosphorylation of ERK in AGS cells; type: cell-based; conditions: Homo sapiens; AGS cells expressing G12D, 3 hours, phospho-ERK signal normalized to GAPDH; read-out: IC50
Protocol: AGS cells (ATCC CRL-1739) expressing G12D were grown in DMEM medium supplemented with 10% fetal bovine serum, 10 mM HEPES, and Penicillin/Streptomycin. Cells were plated in tissue culture treated 96 well plates at a density of 40,000 cells/well and allowed to attach for 12-14 hours. Diluted compounds were then added in a final concentration of 0.5% DMSO. After 3 hours, the medium was removed, 150 μl of 4.0% formaldehyde was added and the plates incubated at room temperature for 20 minutes. The plates were washed with PBS, and permeabilized with 150 μL of ice cold 100% methanol for 10 minutes. Non-specific antibody binding to the plates was blocked using 100 μL Licor blocking buffer (Li-Cor Biotechnology, Lincoln NE) for 1 hour at room temperature.
The amount of phospho-ERK was determined using an antibody specific for the phosphorylated form of ERK and compared to the amount of GAPDH. Primary antibodies used for the detection were added as follows: Phospho-ERK(Cell Signaling cs-9101) diluted 1:500 and GAPDH (Millipore MAB374) diluted 1:5000 in Licor block+0.05% Tween 20. The plates were incubated for 2 hours at room temperature. The plates were washed with PBS+0.05% Tween 20.
Secondary antibodies used to visualize primary antibodies were added as follows: Anti-rabbit-680 diluted 1:1000 and Anti-mouse-800 diluted 1:1000 both in Licor block+0.05% Tween20, and were incubated for 1 hour at room temperature. The plates were washed with PBS+0.05% Tween 20. A 100 μl aliquot of PBS was added to each well and the plates were read on a Li-Cor Odyssey CLX plate reader.
The phospho-ERK(Thr202/Tyr204 signal was normalized to the GAPDH signal for each well and percent of DMSO control values were calculated. IC50 values were generated using a 4-parameter fit of the dose response curve

KRas G12D = KRas G12D (Homo sapiens, UniProt P01116, G12D); assay: KRas G12D Binding Assay (TR-FRET displacement of labeled tracer); parameters: corresponding to amino acids 1:169, produced at Array BioPharma Inc; biotin (biotinylated); conditions: TR-FRET displacement of Cy5 labelled tracer, Biotinylated GDP-loaded KRAS G12D (amino acids 1:169), 60 minute incubation at 22° C.
Protocol: This Example illustrates that exemplary compounds of the present invention bind to KRas G12D and are capable of displacing a labeled tracer ligand occupying the KRas G12D binding site. The ability of a compound to bind to KRAS G12D was measured using a TR-FRET displacement assay. Biotinylated GDP-loaded recombinant human KRAS G12D (corresponding to amino acids 1:169, produced at Array BioPharma Inc.) was incubated with a custom-made Cy5 labelled tracer, europium labelled streptavidin and compound (2% DMSO final) in buffer (50 mM HEPES [pH 7.5], 5 mM MgCl2, 0.005% Tween-20 & 1 mM DTT). After a 60 minute incubation at 22° C., the reaction was measured using a PerkinElmer EnVision multimode plate reader via TR-FRET dual wavelength detection, and the percent of control (POC) calculated using a ratiometric emission factor. […] The POC values were fit to a 4-parameter logistic curve and the IC50 value was determined as the concentration where the curve crosses 50 POC.

Sequence of KRas G12D (P01116 1-169 isoform P01116-2 G12D): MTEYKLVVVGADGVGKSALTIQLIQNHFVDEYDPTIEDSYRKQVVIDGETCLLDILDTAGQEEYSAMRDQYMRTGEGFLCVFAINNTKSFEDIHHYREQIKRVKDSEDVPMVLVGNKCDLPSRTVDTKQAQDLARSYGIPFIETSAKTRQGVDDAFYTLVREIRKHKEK

IC50 (KRas G12D) [nM]	SMILES	IC50 [1] [nM]
0.7	CCc1cccc2cc(O)cc(-c3ncc4c(NCC5(N(C)C)CCC5)nc(OC[C@@]56CCCN5[C@H](COC(=O)NC)CC6)nc4c3F)c12 (racemic) [Example 44]	220
80.9	CN[C@H]1C[C@@H](Nc2nc(OCC34CCCN3CCC4)nc3c(F)c(-c4cc(O)cc5ccccc45)ncc23)C1 [Example 17, 4-(8-fluoro-4-(((1s,3s)-3-(methylamino)cyclobutyl)amino)-2-((tetrahydro-1H-pyrrolizin-7a(5H)-yl)methoxy)pyrido[4,3-d]pyrimidin-7-yl)naphthalen-2-ol bis(2,2,2-trifluoroacetate)]	> 16700
46.5	Oc1cc(-c2ncc3c(NC4CNC4)nc(OCC45CCCN4CCC5)nc3c2F)c2ccccc2c1 [Example 18, 4-(4-(azetidin-3-ylamino)-8-fluoro-2-((tetrahydro-1H-pyrrolizin-7a(5H)-yl)methoxy)pyrido[4,3-d]pyrimidin-7-yl)naphthalen-2-ol]	> 16700
22	C#Cc1cccc2cccc(-c3ncc4c(NCC5(N(C)C)CCC5)nc(OC[C@@]56CCCN5C[C@H](F)C6)nc4c3F)c12 [Example 20, N-((1-(dimethylamino)cyclobutyl)methyl)-7-(8-ethynylnaphthalen-1-yl)-8-fluoro-2-(((2R,7aS)-2-fluorotetrahydro-1H-pyrrolizin-7a(5H)-yl)methoxy)pyrido[4,3-d]pyrimidin-4-amine bis(2,2,2-trifluoroacetate)]	2510
59.2	CCc1cccc2cccc(-c3ncc4c(NCC5(N(C)C)CCC5)nc(OC[C@@]56CCCN5C[C@H](F)C6)nc4c3F)c12 [Example 21, N-((1-(dimethylamino)cyclobutyl)methyl)-7-(8-ethylnaphthalen-1-yl)-8-fluoro-2-(((2R,7aS)-2-fluorotetrahydro-1H-pyrrolizin-7a(5H)-yl)methoxy)pyrido[4,3-d]pyrimidin-4-amine]	> 16700
62.8	NC1(CNc2nc(OC[C@@]34CCCN3C[C@H](F)C4)nc3c(F)c(-c4cc(O)cc5ccccc45)ncc23)CCC1 [Example 29, 4-(4-(((1-aminocyclobutyl)methyl)amino)-8-fluoro-2-(((2R,7aS)-2-fluorotetrahydro-1H-pyrrolizin-7a(5H)-yl)methoxy)pyrido[4,3-d]pyrimidin-7-yl)naphthalen-2-ol bis(2,2,2-trifluoroacetate)]	1560
1.1	CCc1cccc2cc(O)cc(-c3ncc4c(NCC5(N(C)C)CCC5)nc(OC[C@]56CCCN5[C@@H](COC(=O)N(C)C)CC6)nc4c3F)c12 [Example 43, ((3R,7aR)-7a-(((4-(((1-(dimethylamino)cyclobutyl)methyl)amino)-7-(8-ethyl-3-hydroxynaphthalen-1-yl)-8-fluoropyrido[4,3-d]pyrimidin-2-yl)oxy)methyl)hexahydro-1H-pyrrolizin-3-yl)methyl dimethylcarbamate]	53.5
0.4	C#Cc1c(F)ccc2cc(O)cc(-c3ncc4c(NCC5(N(C)C)CCC5)nc(OC[C@]56CCCN5[C@@H](COC(=O)N(C)C)CC6)nc4c3F)c12 [Example 45, ((3R,7aR)-7a-(((4-(((1-(dimethylamino)cyclobutyl)methyl)amino)-7-(8-ethynyl-7-fluoro-3-hydroxynaphthalen-1-yl)-8-fluoropyrido[4,3-d]pyrimidin-2-yl)oxy)methyl)hexahydro-1H-pyrrolizin-3-yl)methyl dimethylcarbamate]	38.3
513	CC(C)c1c(Cl)cccc1-c1ncc2c(NCC3(N(C)C)CCC3)nc(OCC34CCCN3CCC4)nc2c1F [Example 47, 7-(3-chloro-2-isopropylphenyl)-N-((1-(dimethylamino)cyclobutyl)methyl)-8-fluoro-2-((tetrahydro-1H-pyrrolizin-7a(5H)-yl)methoxy)pyrido[4,3-d]pyrimidin-4-amine]	
1080	CC(C)c1c(Cl)cccc1-c1ncc2c(NCC3(N(C)C)CCC3)nc(OC[C@@]34CCCN3C[C@H](F)C4)nc2c1F [Example 48, 7-(3-chloro-2-isopropylphenyl)-N-((1-(dimethylamino)cyclobutyl)methyl)-8-fluoro-2-(((2R,7aS)-2-fluorotetrahydro-1H-pyrrolizin-7a(5H)-yl)methoxy)pyrido[4,3-d]pyrimidin-4-amine]	
232	CN(C)C1(CNc2nc(OC[C@]34CCCN3[C@@H](COC(=O)N3CCCC3)CC4)nc3c(F)c(-c4cccc5cccc(Cl)c45)ncc23)CCC1 [Example 49, ((3R,7aR)-7a-(((7-(8-chloronaphthalen-1-yl)-4-(((1-(dimethylamino)cyclobutyl)methyl)amino)-8-fluoropyrido[4,3-d]pyrimidin-2-yl)oxy)methyl)hexahydro-1H-pyrrolizin-3-yl)methyl pyrrolidine-1-carboxylate]	
7160	CN(C)C1(CNc2nc(OCC34CCCN3CCC4)nc3c(F)c(-c4cccc5cccc(F)c45)ncc23)CCOCC1 [Example 53, N-((4-(dimethylamino)tetrahydro-2H-pyran-4-yl)methyl)-8-fluoro-7-(8-fluoronaphthalen-1-yl)-2-((hexahydro-1H-pyrrolizin-7a-yl)methoxy)pyrido[4,3-d]pyrimidin-4-amine]	
938	CN(C)C(C)(C)CNc1nc(OCC23CCCN2CCC3)nc2c(F)c(-c3cccc4cccc(Cl)c34)ncc12 [Example 55, N^1-(7-(8-chloronaphthalen-1-yl)-8-fluoro-2-((hexahydro-1H-pyrrolizin-7a-yl)methoxy)pyrido[4,3-d]pyrimidin-4-yl)-N^2,N^2,2-trimethylpropane-1,2-diamine]	
1.1	CCc1c(F)ccc2cc(O)cc(-c3ncc4c(NCC5(N(C)C)CCC5)nc(OC[C@@]56CCCN5C[C@H](F)C6)nc4c3F)c12 [Example 57, 4-(4-(((1-(dimethylamino)cyclobutyl)methyl)amino)-8-fluoro-2-(((2R,7aS)-2-fluorohexahydro-1H-pyrrolizin-7a-yl)methoxy)pyrido[4,3-d]pyrimidin-7-yl)-5-ethyl-6-fluoronaphthalen-2-ol]	
9090	CN(CC1(N(C)C)CCC1)c1nc(OCC23CCCN2CCC3)nc2c(F)c(-c3cccc4cccc(F)c34)ncc12 [Example 58, N-((1-(dimethylamino)cyclobutyl)methyl)-8-fluoro-7-(8-fluoronaphthalen-1-yl)-2-((hexahydro-1H-pyrrolizin-7a-yl)methoxy)-N-methylpyrido[4,3-d]pyrimidin-4-amine]	
1030	CNC1(CNc2nc(OCC34CCCN3CCC4)nc3c(F)c(-c4cccc5cccc(F)c45)ncc23)CCC1 [Example 59, 8-fluoro-7-(8-fluoronaphthalen-1-yl)-2-((hexahydro-1H-pyrrolizin-7a-yl)methoxy)-N-((1-(methylamino)cyclobutyl)methyl)pyrido[4,3-d]pyrimidin-4-amine]	
2120	NC1(CNc2nc(OCC34CCCN3CCC4)nc3c(F)c(-c4cccc5cccc(F)c45)ncc23)CCC1 [Example 60, N-((1-aminocyclobutyl)methyl)-8-fluoro-7-(8-fluoronaphthalen-1-yl)-2-((hexahydro-1H-pyrrolizin-7a-yl)methoxy)pyrido[4,3-d]pyrimidin-4-amine]	
480	CN(C)C1(CNc2nc(OCC34CCCN3CCC4)nc3c(F)c(-c4cccc5cccc(F)c45)ncc23)CCCC1 [Example 61, N-((1-(dimethylamino)cyclopentyl)methyl)-8-fluoro-7-(8-fluoronaphthalen-1-yl)-2-((hexahydro-1H-pyrrolizin-7a-yl)methoxy)pyrido[4,3-d]pyrimidin-4-amine]	
203	NC1CC(Nc2nc(OCC34CCCN3CCC4)nc3c(F)c(-c4cccc5cccc(F)c45)ncc23)C12CCC2 (stereo not drawn) [Example 62, N^1-(8-fluoro-7-(8-fluoronaphthalen-1-yl)-2-((hexahydro-1H-pyrrolizin-7a-yl)methoxy)pyrido[4,3-d]pyrimidin-4-yl)spiro[3.3]heptane-1,3-diamine]	
